This is an account of results in paper PMC7827417, “Steroid Glycosides Hyrcanoside and Deglucohyrcanoside: On Isolation, Structural Identification, and Anticancer Activity” (Foods, 2021).

The subject of one data set is HCT116. Description: MTS cytotoxic assay, HCT116. Format: cell-based. To be noted: Homo sapiens. The source says:
If not indicated otherwise, the cell lines were purchased from the American Type Culture Collection (ATCC). […] K562 is the erythroid-myeloid precursor cell line derived from chronic myeloid leukemia carrying the BCR-ABL hybrid gene. A549, MCF-7, PC-3, 5637, U-2 OS, and MiaPaCa-2 are cells derived from lung, breast, prostate, bladder carcinoma, osteosarcoma, and pancreatic adenocarcinoma, respectively. HEK 293T are transformed human embryonic kidney cells, and L929 (Sigma, St. Louis, MS, USA) are transformed mouse fibroblasts. HCT116, cells from colorectal carcinoma, and their p53 gene knock-out variant (HCT116p53-/-) were purchased from Horizon Discovery. This cell line is a model of human tumors bearing p53 loss-of-function mutations or biallelic deletion of the p53 gene, frequently associated with poor prognosis. The MRC-5 and BJ cells were used as noncancerous cells; more specifically, they are human fibroblasts from the lungs and foreskin, respectively. According to the supplier’s recommendations, all cells were cultured at 37 °C in a 5% CO2 atmosphere and 100% humidity. The culture media used were: DMEM, RPMI 1640, and MEM (according to a cell line); all were supplemented with 5 g L^−1 glucose, 10% fetal calf serum, 2 mM glutamine, 100 U mL^−1 penicillin, 100 µg mL^−1 streptomycin, and NaHCO3. Cells were passaged every two or three days using 0.25% trypsin plus 0.01% EDTA (ethylenediamine tetraacetic acid) in phosphate-buffered saline.
To evaluate compound cytotoxicity, cells were seeded in 384-well microtiter plates in a volume of […]. The next day, aliquots of the tested derivatives were transferred with Echo550 acoustic liquid handler (Labcyte) to obtain dose response curves with dilution factor 4. The experiments were performed in technical duplicates and three or more biological replicates. After 72 h of incubation in a humidified incubator, […] of the MTS/PMS stock solution were pipetted into each well. After another 1–4 h of incubation, the absorbance at 490 nm was measured using an EnVision Multilabel Plate Reader (PerkinElmer).
For orientation: Tetrazolium dyes change colour on reduction, which living cells bring about.

In the next data set the test system is mouse peritoneal cells. Description: Viability of mouse peritoneal primary cells (macrophages), WST-1. Format: cell-based. To be noted: 24 h; for IC50: Mus musculus, Macrophage, WST-1, lowest tested concentration 1 nM, read-out: concentration at which IC50 was reached in mouse macrophages. The protocol:
Female mice of the inbred strain C57BL/6, eight to ten weeks old, were purchased from Charles River Deutschland (Sulzfeld, Germany). They were kept in transparent plastic cages in groups of ten. The animals were housed with food and water ad libitum, lighting was set on 6–18 h, and the temperature was set at 22 °C. All protocols were approved by the institutional ethics committee (MSMT15894/2013-310). Animals, killed by cervical dislocation, were intraperitoneally injected with 8 mL of sterile saline. Pooled peritoneal cells collected from mice were washed in sterile saline, re-suspended in the culture medium, and seeded into 96-well microplates in final 100-μL volumes (Costar, Cambridge, MA, USA). The final density of the cells was 0.25 × 10^6 per mL^−1. The cultures were maintained with or without compounds for 24 h at 37 °C with 5% CO2 in a humidified Heraeus incubator in complete RPMI-1640 (Merck-Sigma, St. Louis, MS, USA), which contained 10% heat-inactivated fetal bovine serum, 2 mM of L-glutamine, 50 μg·mL^−1 of gentamicin, and 5 × 10^−5 M of 2-mercaptoethanol (all Merck-Sigma, St. Louis, MS, USA). Compounds (Ob, Cy (cymarin), Hyr, deHyr) were prepared as 100 mM stock solutions in dimethyl sulfoxide (DMSO) with cell culture grade. The next dilution continued immediately before the experiment with the culture medium. To eliminate the influence of DMSO, equal levels of DMSO were added to the experimental groups.
The viability of mouse peritoneal cells was determined using a colorimetric assay based on the cleavage of the tetrazolium salt WST-1 by mitochondrial dehydrogenases in viable cells (Merck-Sigma, St. Louis, MS, USA). The cells were cultured as described above. After 24 h of culture, the WST-1 was added, and the cells were kept in the Heraeus incubator at 37 °C for an additional 3 h. Optical density at 450/690 nm was determined. The cytotoxicity of the tested CGs was expressed as a percentage. The test samples were related to control samples consisting of untreated cells and samples with 100% dead cells evoked by 1% Triton, according to the formula: ((exp. value − control value)/(Triton value − control value)) × 100. All control and experimental variants were run in quadruplicates. The data were analyzed using GraphPad Prism software 6.05 (GraphPad, San Diego, CA, USA). Values were expressed as the mean ± standard error of the mean (SEM).

Data set [1] has as its system rat vascular smooth muscle cells, endothelial cells, and astrocytes. On the set-up: method as in PMID 26067145. The conditions noted are these: high concentrations of Ob (3–3000 μM) ref 54; cited from earlier work.
The test system of a further data set is SH-SY5Y cells. Set-up: method as in PMID 25838173. To be noted: cited from earlier work.
[2] abbreviates: WST-1, 0.001–100.0 µM, not dose-dependent.

Read-outs that look alike come from different tables or passages of the source.

With `C[C@]12CC[C@H]3[C@@H](CCC4=C[C@@H](O[C@@H]5OC[C@@H](O)[C@H](O)[C@H]5O)CC[C@@]43C=O)[C@@]1(O)CC[C@@H]2C1=CC(=O)OC1` [deHyr, deglucohyrcanoside], the IC50 in the data set on HCT116 (HCT-116, 72 h) was 140 ± 16 nM; in the data set on mouse peritoneal cells, around 10 nM. Also, the “viability of mouse macrophages reduced to % of the control” value in the data set on mouse peritoneal cells (setting [2]) is given as 50%.
As to `CO[C@H]1C[C@H](O[C@H]2CC[C@]3(C=O)[C@H]4CC[C@]5(C)[C@@H](C6=CC(=O)OC6)CC[C@]5(O)[C@@H]4CC[C@]3(O)C2)O[C@H](C)[C@H]1O` [Cy, cymarin], the IC50 in the data set on HCT116 (HCT-116, 72 h) was 21 ± 2.5 nM; with mouse peritoneal cells, at most 1 nM. The “cytotoxicity to mouse macrophages, % of the control” value in the data set with mouse peritoneal cells (setting [2]) was “about 60%”.
Take `C[C@@H]1O[C@@H](O[C@H]2C[C@@H](O)[C@]3(CO)[C@H]4[C@H](O)C[C@]5(C)[C@@H](C6=CC(=O)OC6)CC[C@]5(O)[C@@H]4CC[C@]3(O)C2)[C@H](O)[C@H](O)[C@H]1O` [Ob, ouabain]: in data set [1], the “survival of rodent cells (in words)” value was “perfectly survived”. The IC50 in the data set with HCT116 (HCT-116, HCT116, MTS, 72 h, read-out: IC50) came out at 30 ± 3.6 nM. In addition, the “decrease of viability of mouse macrophages compared to the control” value in the data set with mouse peritoneal cells (WST-1, independent of concentration 1 nm–100 µM) is reported as 10–20%. For the same molecule, in the data set on mouse peritoneal cells (up to 100 µM concentration), the “cytotoxicity to mouse macrophages (in words)” value was “did not exhibit significant cytotoxicity”. Moreover, the figures for the reduction of viability with SH-SY5Y cells (24 h ref 53) and in the data set with SH-SY5Y cells (48 h ref 53) were 40% and 10%, respectively.
`C[C@]12CC[C@H]3[C@@H](CCC4=C[C@@H](O[C@@H]5OC[C@@H](O[C@@H]6O[C@H](CO)[C@@H](O)[C@H](O)[C@H]6O)[C@H](O)[C@H]5O)CC[C@@]43C=O)[C@@]1(O)CC[C@@H]2C1=CC(=O)OC1` [Hyr, (3β)-3-[(4-O-β-D-glucopyranosyl-β-D-xylopyranosyl)oxy]-14-hydroxy-19-oxocarda-4,20(22)-dienolide]: the IC50 with HCT116 (HCT-116, 72 h) was 670 ± 37 nM; with mouse peritoneal cells, around 100 nM. Besides, in the data set on mouse peritoneal cells (setting [2]), the “cytotoxicity to mouse macrophages, % of the control” value was “about 60%”.
